From PubChem BioAssay (NCI) come the findings set out here.

Where “and” joins values, the source holds several entries; their conditions need not be identical. Equal values may be shown once.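 The compound was tested at five concentrations on cells cultured in 96-well plates, with a 48-hour exposure period. GI50 = concentration required for 50% inhibition of growth. TGI: total growth inhibition.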 Some results are limits rather than exact numbers.

Among the test systems are HCT-15 colon; OVCAR-8 ovarian; OVCAR-3 ovarian; SN12C renal; MDA-MB-231 breast; SK-MEL-2 melanoma; SNB-19 CNS; COLO 205 colon; SK-MEL-28 melanoma; MDA-MB-435.
Common to all, as to experiment: growth of human tumour cells (NCI), 48 h

For the molecule `O=C(Nc1cccc(Cl)c1)Nc1ncc(CCNc2ncnc3ccsc23)s1`, the GI50 with HCT-15 colon is 2.99 µM and 1.79 µM; with OVCAR-8 ovarian it was 1.68 µM and 1.22 µM; with OVCAR-3 ovarian it was 4.06 µM and 1.06 µM; in the test with SN12C renal, 3.91 µM and 3.82 µM; with MDA-MB-231 breast, 3.38 µM and 2.67 µM; in the test on SK-MEL-2 melanoma it was 2.88 µM and 1.76 µM. In addition, the GI50 in the test with SNB-19 CNS was 11.2 µM and > 10 µM; in the test on COLO 205 colon, < 0.0105 µM and 0.00997 µM; in the test with SK-MEL-28 melanoma, 3.85 µM and 2.42 µM; with MDA-MB-435, 1.99 µM and 1.89 µM. For the same molecule, the TGI in the test on HCT-15 colon is 20.4 µM and > 10 µM; with OVCAR-8 ovarian, 9.64 µM and 5.31 µM; in the test with OVCAR-3 ovarian, 17.1 µM and > 10 µM; in the test with SN12C renal, 18.6 µM and > 10 µM; in the test on MDA-MB-231 breast, 17.4 µM and > 10 µM; in the test on SK-MEL-2 melanoma, 10.8 µM and 6.26 µM. For the same molecule, the TGI was 26.9 µM and > 10 µM in the test with SNB-19 CNS; 8.36 µM and 3.88 µM in the test on COLO 205 colon; 17.4 µM and > 10 µM with SK-MEL-28 melanoma; 14.2 µM and > 10 µM in the test with MDA-MB-435.

As to `CCOC(=O)Cc1c[nH]c(=S)[nH]c1=O`, the GI50 with HCT-15 colon, with OVCAR-8 ovarian, with OVCAR-3 ovarian, with SN12C renal, in the test with MDA-MB-231 breast and in the test on SK-MEL-2 melanoma was over 100 µM each time. For the same molecule, the GI50 in the test with SNB-19 CNS, with COLO 205 colon, in the test with SK-MEL-28 melanoma and in the test on MDA-MB-435 was over 100 µM throughout. In addition, the TGI in the test on HCT-15 colon, in the test with OVCAR-8 ovarian, with OVCAR-3 ovarian, in the test on SN12C renal, in the test on MDA-MB-231 breast and with SK-MEL-2 melanoma was over 100 µM throughout. Also, the TGI in the test on SNB-19 CNS, in the test on COLO 205 colon, with SK-MEL-28 melanoma and in the test on MDA-MB-435 was over 100 µM each time.

As for `CCc1c(C)[nH]c(/C=C2\N=C(c3ccc[nH]3)C=C2OC)c1C`, the GI50 was 0.0935 µM with HCT-15 colon; 0.232 µM in the test on OVCAR-8 ovarian; 0.143 µM in the test on OVCAR-3 ovarian; 0.627 µM with SN12C renal; 0.128 µM in the test on MDA-MB-231 breast; 0.234 µM with SK-MEL-2 melanoma. Besides, the GI50 in the test with SNB-19 CNS was 1.96 µM; in the test on COLO 205 colon, 0.268 µM; with SK-MEL-28 melanoma it was 0.365 µM; in the test with MDA-MB-435, 0.0733 µM. Besides, the TGI in the test with HCT-15 colon was 3.75 µM; with OVCAR-8 ovarian, over 24.1 µM; in the test on OVCAR-3 ovarian, 3.18 µM; in the test on SN12C renal it was 15.6 µM; with MDA-MB-231 breast, 3.16 µM; with SK-MEL-2 melanoma it was 0.989 µM. The TGI with SNB-19 CNS came out at 15.7 µM; with COLO 205 colon, 1.88 µM; with SK-MEL-28 melanoma, 1.87 µM; with MDA-MB-435 it was 1.42 µM.

Consider `CCc1ccc(NC(=O)Nc2c[nH]c3ccccc23)cc1`, for which the GI50 is 17.8 µM in the test with HCT-15 colon; 13.9 µM in the test on OVCAR-8 ovarian; 2.47 µM in the test on OVCAR-3 ovarian; 2.22 µM with SN12C renal; 3.2 µM in the test on MDA-MB-231 breast; 35.5 µM in the test with SK-MEL-2 melanoma. Further, the GI50 was 22.7 µM with SNB-19 CNS, over 38.9 µM in the test on COLO 205 colon, over 39 µM in the test with SK-MEL-28 melanoma and 22.6 µM with MDA-MB-435. Further, the TGI in the test on HCT-15 colon was over 55.2 µM; with OVCAR-8 ovarian, over 47.5 µM; in the test on OVCAR-3 ovarian, over 32.2 µM; in the test with SN12C renal, over 36.2 µM; with MDA-MB-231 breast it was over 36.9 µM; in the test on SK-MEL-2 melanoma, over 52.1 µM. Further, the TGI is over 58.3 µM in the test with SNB-19 CNS, over 54 µM in the test with COLO 205 colon, over 56.6 µM in the test on SK-MEL-28 melanoma and over 49.5 µM in the test with MDA-MB-435.

With `Nc1ncnc2sc(=S)c3c(c12)CCC3`, the GI50 in the test with HCT-15 colon was 38.2 µM; in the test with OVCAR-8 ovarian, 37.7 µM; with OVCAR-3 ovarian it was 30.7 µM; in the test on SN12C renal, 32.8 µM; with MDA-MB-231 breast it was 30.4 µM; in the test on SK-MEL-2 melanoma it was 81.8 µM. In addition, the GI50 was 29.2 µM with SNB-19 CNS, 25.1 µM in the test with COLO 205 colon, over 100 µM with SK-MEL-28 melanoma and 46.9 µM in the test on MDA-MB-435. In addition, the TGI with HCT-15 colon, in the test with OVCAR-8 ovarian, with OVCAR-3 ovarian, in the test with SN12C renal, in the test with MDA-MB-231 breast and in the test on SK-MEL-2 melanoma was over 100 µM in each case. For the same molecule, the TGI with SNB-19 CNS is 82.9 µM; in the test on COLO 205 colon, 62.6 µM; in the test with SK-MEL-28 melanoma, over 100 µM; in the test with MDA-MB-435 it was over 100 µM.

As for `CC(=O)OC1c2ccccc2CC2(OC(C)=O)c3ccccc3C12` (stereo not given), the TGI in the test with HCT-15 colon, in the test on OVCAR-8 ovarian, in the test with OVCAR-3 ovarian, in the test on SN12C renal, with MDA-MB-231 breast and in the test with SK-MEL-2 melanoma was over 100 µM in each case. Also, the TGI with SNB-19 CNS, in the test on COLO 205 colon, in the test with SK-MEL-28 melanoma and in the test with MDA-MB-435 was over 100 µM in each case.

As to `N=C(N)c1nn(C2OC(CO)C(O)C2O)c2nc[nH]c(=O)c12` (stereo not given), the GI50 with HCT-15 colon was 0.587 µM; with OVCAR-8 ovarian it was 0.435 µM; with OVCAR-3 ovarian, 0.836 µM; in the test on SN12C renal, 0.315 µM; in the test with MDA-MB-231 breast it was 0.248 µM; in the test with SK-MEL-2 melanoma, 0.19 µM. Besides, the GI50 in the test with SNB-19 CNS was 2.34 µM; in the test on COLO 205 colon, 1.01 µM; in the test on SK-MEL-28 melanoma, 0.336 µM; in the test on MDA-MB-435 it was 0.311 µM. Further, the TGI with HCT-15 colon was determined as 5.71 µM; in the test with OVCAR-8 ovarian, 7.22 µM; in the test on OVCAR-3 ovarian it was 2.9 µM; in the test on SN12C renal, 2.37 µM; in the test with MDA-MB-231 breast, 0.778 µM; in the test on SK-MEL-2 melanoma it was 0.663 µM. Moreover, the TGI in the test on SNB-19 CNS stood at 8.71 µM; in the test on COLO 205 colon, 3.26 µM; in the test on SK-MEL-28 melanoma it was 1.55 µM; in the test on MDA-MB-435, 1.16 µM.

On to `Nc1nc(/C=C\c2ccc([N+](=O)[O-])o2)nc(N2CCN(c3ccccc3)CC2)n1`, for which the GI50 in the test on HCT-15 colon was 2.77 µM; in the test with OVCAR-8 ovarian, 25.8 µM; in the test with OVCAR-3 ovarian it was 3.96 µM; in the test on SN12C renal, 11.1 µM; with MDA-MB-231 breast, 3.51 µM; in the test with SK-MEL-2 melanoma it was 9.91 µM. Further, the GI50 in the test with SNB-19 CNS was 20 µM; in the test with COLO 205 colon, 2.88 µM; in the test with SK-MEL-28 melanoma, 14.1 µM; with MDA-MB-435, 3.98 µM. In addition, the TGI with HCT-15 colon is 11.9 µM; in the test on OVCAR-8 ovarian, over 100 µM; in the test with OVCAR-3 ovarian, 18.2 µM; in the test on SN12C renal it was 43.9 µM; in the test on MDA-MB-231 breast, 13.3 µM; with SK-MEL-2 melanoma, over 100 µM. The TGI with SNB-19 CNS turned out to be 83.8 µM; in the test with COLO 205 colon, 21.9 µM; in the test on SK-MEL-28 melanoma, 40.5 µM; in the test on MDA-MB-435, 26 µM.
